Assay results from patent US9562053B2, “Benzo-fused heterocyclic derivatives useful as agonists of GPR120” (Janssen Pharmaceutica NV, priority 2013, dated 2017).

How the values were obtained:
Format in all cases: cell-based
[1] = biological target: T1, long form of human GPR120 (Homo sapiens, UniProt Q5NUL3); assay: Human GPR120 DiscoveRx PathHunter Beta-Arrestin Assay, Procedure β-arrestin A (3000 cells per well); conditions: read-out: GPR120 B-arrestin A EC50
T1 construct: host or cells: PathHunter CHO-K1 GPR120 β-Arrestin Cell Line
T1 sequence (Q5NUL3 1-377 isoform Q5NUL3-1): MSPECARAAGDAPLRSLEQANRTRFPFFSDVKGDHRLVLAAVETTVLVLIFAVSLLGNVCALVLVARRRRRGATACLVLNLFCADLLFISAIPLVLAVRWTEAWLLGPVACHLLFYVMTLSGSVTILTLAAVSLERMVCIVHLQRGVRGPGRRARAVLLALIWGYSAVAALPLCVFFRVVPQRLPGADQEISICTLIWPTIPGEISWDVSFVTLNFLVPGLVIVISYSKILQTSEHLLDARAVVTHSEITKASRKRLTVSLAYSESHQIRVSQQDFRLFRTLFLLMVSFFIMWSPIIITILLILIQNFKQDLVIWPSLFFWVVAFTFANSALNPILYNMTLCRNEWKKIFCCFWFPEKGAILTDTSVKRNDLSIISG
Text: (§1) The binding of an agonist (medium/long chain fatty acids or small molecule agonists) to the G-protein-coupled receptor GPR120 activates phospholipase C, leading to release of intracellular Ca^+2 through the generation of inositol 1,4,5-trisphosphate (InsP3 or IP3). GPR120 activation can also trigger intracellular signaling via recruitment of β-Arrestin. In the present method, agonist-induced activation of the human GPR120 receptor is monitored through the use of PathHunter CHO-K1 GPR120 β-Arrestin Cell Line engineered by DiscoveRx, as detailed below. The cell lines are designed to co-express both the ProLink/Enzyme Donor (PK)-tagged GPCR and the Enzyme Activator (EA)-tagged β-Arrestin fusion proteins. Upon GPR120 receptor stimulation/activation, the EA-tagged β-Arrestin portion is translocated to the tagged receptor, where the two enzyme fragments are brought within close proximity. Under these conditions, these fragments can interact and form an active Beta-gal enzyme complex through Enzyme Fragment Complementation (EFC). This active Beta-gal complex can enzymatically hydrolyse the substrate to produce a detectable light signal; therefore, activation as a function of agonist concentration can be expressed as an EC50 value to determine relative compound activities. This in vitro assay therefore serves to assess compound agonist activity of the GPR120.
In Procedure β-arrestin A, the cell used were PathHunter CHO-K1 GPR120 β-Arrestin Cell Line, expressing the long form of human GPR120 (Genbank accession number NM_181745), with 3000 cells per well.
(§2) The selected CHO-K1 GPR120 β-Arrestin cells were cultured in Ham's F12 media supplemented with 10% fetal bovine serum (FBS), 1% Glutamine, 1×p/s, 800 μg/ml G418 and 300 μg/ml Hygromycin B (for selection). Cell stocks were maintained and grown in a sub-confluent state using standard cell culture procedures. The day before the experiment, the cells were harvested with non-enzymatic cell dissociation buffer and re-suspended in complete growth media at the desired concentration. A Corning 384-plate was then seeded with the proper number of cells in a volume of 25 μL, per well. The seeded plates were incubated overnight at 37° C.
(§3) On the day of the experiment, the Assay Buffer containing (a) HBSS with Ca^++ and Mg^++, (b) 20 mM HEPES, and (c) 0.1% BSA stabilizer (pH 7.4) was prepared. The growth medium was gently removed from the cell plates and 20 μL of Assay Buffer added to each well. The plate was then incubated at 37° C. for 60 mins. Test compounds were serially diluted in Assay Buffer to desired concentrations (more particularly, to one or more of the following μM concentrations: 25 μM, 12.5 μM, 6.25 μM, 3.125 μM, 1.562 μM, 0.781 μM, 0.391 μM, 0.195 μM, 0.098 μM, 0.049 μM, 0.024 μM, 0.012 μM). Five μl of compound dilution was then added to each well and the plate incubated at 37° C. for 90 mins. The detection reagents were prepared according to the manufacture's instruction. Twelve μL of the detection reagents were added to each well and the plate incubated at room temperature for 60 mins.
(§4) The plates were read on an EnVision instrument, using Protocol name: Luminescence, Plate type: 384 Costar, Measurement height: 3 mm, Measurement time: 1 s, Aperture: 384 Plate aperture. The % activity relative to the positive control was calculated using the following equation:
(§5) The % Activity values were plotted versus the concentration of test compound and fitted to a sigmoidal dose-response curve with a Hill slope=1 (fixed value) using nonlinear regression with GraphPad Prism 5.0 to calculate the EC50 values. The Fitting Equation was: Y=Bottom+(Top−Bottom)/(1+10^((LogEC50−X)*HillSlope)), where X is the log of the concentration and Y is the response.

Human GPR120 short form = biological target: T2, Human GPR120 short form (Homo sapiens, UniProt Q5NUL3); assay: Human GPR120 in Calcium Flux Assay, Procedure Calcium A (2500 cells/well)
T2 construct: expressed in transfected cells
T2 sequence (Q5NUL3 1-361): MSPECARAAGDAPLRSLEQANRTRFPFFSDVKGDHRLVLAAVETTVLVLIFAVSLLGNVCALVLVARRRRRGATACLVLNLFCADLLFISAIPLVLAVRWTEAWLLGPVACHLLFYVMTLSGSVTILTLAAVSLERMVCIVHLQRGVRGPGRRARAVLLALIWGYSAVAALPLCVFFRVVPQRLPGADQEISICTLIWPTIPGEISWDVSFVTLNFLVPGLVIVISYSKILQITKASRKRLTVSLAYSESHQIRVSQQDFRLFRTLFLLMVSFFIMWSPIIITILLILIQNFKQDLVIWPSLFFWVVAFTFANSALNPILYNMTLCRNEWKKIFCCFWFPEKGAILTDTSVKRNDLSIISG
Text: This in vitro assay serves to assess test compound agonist activity against the short splice variant (SVS with Accession number NM_001195755.1 confirmed by sequencing data) of the GPR120 receptor. The Human Short splice variant #2 (NM_001195755.1) is missing an in-frame coding exon compared to variant 1 (the Human Long splice variant NM_181745.3), resulting in a shorter isoform (GPR120-S) lacking a 16 aa protein segment compared to isoform GPR120-L. The assay platform utilizes HEK-293 cells stably transfected to express the Human GPR120 short form. These cells are first loaded with the Ca^+2 sensitive dye, Fluo-4 NW. Upon stimulation, intracellular released Ca^+2 can bind to the dye and alter its fluorescence intensity. This increase in fluorescence signal, and thus the flux in intracellular [Ca^+2], is detected and quantitated by fluorescence imaging using a FLIPR reader. The effect of the agonist is measured as a function of concentration and used to calculate an EC50 based upon a response curve.
In this procedure 2500 cells/well were employed.
A Human GPR120 clone (Genbank accession number NM_001195755.1) was placed into the pcDNA3.1 mammalian expression vector carrying the neomycin resistance gene. A stable mammalian cell was generated by placing the above clone into a HEK293 background. Clonal cells responding to long chain fatty acids had expression levels of GPR120 confirmed by RT-qPCR. Human HEK-GPR120 cells were cultured in Dulbecco's Modified Eagle's Medium (DMEM)/F12 medium supplemented with 10% fetal bovine serum (FBS), 1% L-Glutamine and 1% penicillin/streptomycin and 0.5 mg/ml G-418. Cells were split 2 times a week to keep the cells in the log-phase growth.
In preparation for the assay, HEK cells stably transfected with Human GPR120 (2.5K cells per well in 25 uL growth medium) were seeded into 384-well plates and then incubated overnight (37° C., 5% CO2). The next day, the media was changed to 20 μl assay buffer and the cell starved for 1 h at 37° C. The dye loading solution (2× dye) was prepared using 10 ml assay buffer, 100 μl of 250 mM probenecid, 1 bottle of Component A, and 20 μl of dye in DMSO. Twenty μl of the 2× dye loading buffer was then added to each well. The plates were incubated at 37° C. for 30 min, then at room temperature for an additional 15 minutes, before performing the assay on FLIPR.
Test compounds were prepared in assay buffer (2 μl of test compound+198 μl assay buffer, final DMSO in assay plate is 0.2%) at the desired concentration, more particularly at 100 μM, 50 μM, 25 μM, 12.5 μM, 6.25 μM, 3.125 μM, 1.562 μM, 0.781 μM, 0.391 μM, 0.195 μM, 0.098 μM, 0.049 μM, 0.024 μM and 0.012 μM.
The assay was performed on a FLIPR plate reader using the following parameters. Baseline was read for 10 seconds at 1 sec intervals. The program was set to transfer 10 μL of ligand from compound plate to cell plate after baseline reading. Aspiration was executed at: 10 μl/sec speed, 4.6 μl height; Dispensing was executed at: 30 μl/sec speed, 45 μl height. After compound addition, each well was read for 300 sec, with measurements collected at 1 sec intervals.
The kinetic data from the FLIPR was based upon a 5 minute window for data collection. The fluorescence of each sample well was used for individual calculations of a normalized RFU value, which was defined as maximum response minus the minimum response. The normalized fluorescence reading (RFU) was calculated as follows: RFU=Fmax−Fmin
The data were fitted to a sigmoidal dose-response curve with a variable Hill slope (<2) using nonlinear regression with GraphPad Prism 5.0 to calculate the EC50 values. The Fitting Equation was: Y=Bottom+(Top−Bottom)/(1+10^((LogEC50−X)*HillSlope)), where X is the log of the concentration and Y is the response.

[2] = biological target: T3, short form of the GPR120 receptor (Homo sapiens, UniProt Q5NUL3); assay: Human GPR120 DiscoveRx PathHunter Beta-Arrestin Assay, Procedure β-arrestin B (5000 cells/well)
T3 construct: host or cells: PathHunter CHO-K1 GPR120S β-Arrestin Cell Line
T3 sequence (Q5NUL3 1-361): T2 sequence (Q5NUL3 1-361)
Text: as §1
In Procedure β-arrestin B the cells used were PathHunter CHO-K1 GPR120S β-Arrestin Cell Line, expressing the short form of the GPR120 receptor (Accession #NM_181745), with 5000 cells/well.
as §2, §3, §4, §5

| SMILES | EC50 [1] [nM] | EC50 (Human GPR120 short form) [nM] | EC50 [2] [nM] |
| --- | --- | --- | --- |
| Cc1cc2cc(OC(F)(F)F)cc(COc3ccc(CCC(=O)O)c(C(F)(F)F)c3)c2o1 [Compound 112, 3-[4-{[2-Methyl-5-(trifluoromethoxy)-1-benzofuran-7-yl]methoxy}-2-(trifluoromethyl)phenyl]propanoic acid] |  | 121 | 110 |
| Cc1c(CCC(=O)O)ccc(OCc2cc(F)cc3sc(CC(C)C)nc23)c1C [Compound 115, 3-(4-{[6-Fluoro-2-(2-methylpropyl)-1,3-benzothiazol-4-yl]methoxy}-2,3-dimethylphenyl)propanoic acid] |  | 468 | 772 |
| Cc1c(CCC(=O)O)ccc(OCc2cc(F)cc3sc(C(F)(F)F)nc23)c1C [Compound 117, 3-(4-{[6-Fluoro-2-(trifluoromethyl)-1,3-benzothiazol-4-yl]methoxy}-2,3-dimethylphenyl)propanoic acid] |  | 422 | 681 |
| Cc1nc2c(COc3ccc(CCC(=O)O)c(C)c3C)cc(OC(F)(F)F)cc2s1 [Compound 118, 3-(2,3-Dimethyl-4-{[2-methyl-6-(trifluoromethoxy)-1,3-benzothiazol-4-yl]methoxy}phenyl)propanoic acid] |  | 65 | 237 |
| Cc1c(CCC(=O)O)ccc(OCc2cc(Cl)cc3sc(C(F)(F)F)nc23)c1C [Compound 119, 3-(4-{[6-Chloro-2-(trifluoromethyl)-1,3-benzothiazol-4-yl]methoxy}-2,3-dimethylphenyl)propanoic acid] |  |  | 1440 |
| Cc1nc2cc(Cl)cc(COc3ccc(CCC(=O)O)c(C)c3C)c2s1 [Compound 121, 3-{4-[(5-Chloro-2-methyl-1,3-benzothiazol-7-yl)methoxy]-2,3-dimethylphenyl}propanoic acid] |  | 382 | 1190 |

Second part, the compound after the results:

| EC50 [1] [nM] | EC50 (Human GPR120 short form) [nM] | EC50 [2] [nM] | SMILES |
| --- | --- | --- | --- |
| > 20000 |  |  | Cc1oc2cccc(COc3ccc(CCC(=O)O)c(F)c3F)c2c1C [Compound 1, 3-{4-[(2,3-Dimethyl-1-benzofuran-4-yl)methoxy]-2,3-difluorophenyl}propanoic acid] |
| > 20000 |  |  | Cc1cc2c(COc3ccc(CCC(=O)O)c(F)c3F)cccc2o1 [Compound 6, 3-{2,3-Difluoro-4-[(2-methyl-1-benzofuran-4-yl)methoxy]phenyl}propanoic acid] |
| 2220 |  |  | CCCc1cc2cc(C(C)(F)F)cc(COc3ccc(CCC(=O)O)c(C)c3C)c2o1 [Compound 79, 3-(4-{[5-(1,1-Difluoroethyl)-2-propyl-1-benzofuran-7-yl]methoxy}-2,3-dimethylphenyl)propanoic acid] |
